The values below come from US20080234262A1 (Wyeth, priority 2007, published 2008).

Read-outs that look alike come from different tables or passages of the source.

For one experiment, the target named is PI3K (Homo sapiens, UniProt P42336). The experiment in a line: Fluorescence polarization assay for PI3K.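 Further: PI3K kinase reaction on PIP2 with ATP, 30-60 min, product sensed by GST-GRP with red probe in fluorescence polarization (mP), controls without enzyme and at zero time.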 Format: biochemical. On the technique in general: Fluorescence polarisation rises when a labelled molecule tumbles more slowly, as on binding a larger partner.
The test system of another experiment is prostate line LNCap. The experiment in a line: In vitro cell culture growth assay (MTS), LNCap.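 Further: viable cell density read by absorbance at 490 nm, growth expressed as percent of vehicle-treated cells on the same plate.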 Format: cell-based, human. As to conditions: LNCap cells, three days after drug treatment.
For a further experiment, the system named is breast line MDA468. The experiment is described as follows: In vitro cell culture growth assay (MTS), MDA468. Type of experiment: cell-based, human. The note with it: MDA468 cells, three days after drug treatment. In a few lines: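 Three-day drug treatment starting 1 day post-plating; viable cells quantified via MTS metabolism (A490); effect normalised to in-plate vehicle controls as % growth.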

Sequence of PI3K (P42336 whole entry): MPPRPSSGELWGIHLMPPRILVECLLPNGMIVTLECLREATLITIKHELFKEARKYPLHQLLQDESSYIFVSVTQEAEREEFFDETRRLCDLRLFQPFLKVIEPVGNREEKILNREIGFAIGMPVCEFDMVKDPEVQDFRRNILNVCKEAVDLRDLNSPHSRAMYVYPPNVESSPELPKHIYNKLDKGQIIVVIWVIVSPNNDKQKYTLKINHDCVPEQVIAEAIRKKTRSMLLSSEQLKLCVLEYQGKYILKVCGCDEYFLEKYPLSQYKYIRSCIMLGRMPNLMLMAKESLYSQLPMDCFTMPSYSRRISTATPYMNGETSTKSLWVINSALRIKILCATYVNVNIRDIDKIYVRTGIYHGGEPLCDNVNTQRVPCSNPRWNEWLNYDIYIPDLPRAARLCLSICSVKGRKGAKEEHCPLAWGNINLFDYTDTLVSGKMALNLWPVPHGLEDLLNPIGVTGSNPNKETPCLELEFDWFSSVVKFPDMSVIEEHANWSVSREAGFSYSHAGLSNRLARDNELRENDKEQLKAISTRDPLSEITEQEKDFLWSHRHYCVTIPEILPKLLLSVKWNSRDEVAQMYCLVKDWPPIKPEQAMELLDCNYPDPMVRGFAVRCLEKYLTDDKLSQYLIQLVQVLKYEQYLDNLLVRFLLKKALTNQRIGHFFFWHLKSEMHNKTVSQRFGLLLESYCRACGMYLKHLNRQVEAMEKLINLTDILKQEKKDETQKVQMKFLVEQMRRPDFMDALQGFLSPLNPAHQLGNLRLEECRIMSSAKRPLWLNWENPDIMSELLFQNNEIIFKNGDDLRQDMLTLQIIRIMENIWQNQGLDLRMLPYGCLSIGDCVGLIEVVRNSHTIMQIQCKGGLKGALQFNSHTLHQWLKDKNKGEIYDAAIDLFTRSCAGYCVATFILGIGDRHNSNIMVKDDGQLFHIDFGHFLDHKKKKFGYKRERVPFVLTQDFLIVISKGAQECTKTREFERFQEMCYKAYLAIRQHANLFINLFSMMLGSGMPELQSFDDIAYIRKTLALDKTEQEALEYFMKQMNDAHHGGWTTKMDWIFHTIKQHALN
Sequence of PI3K (P27986 whole entry partner): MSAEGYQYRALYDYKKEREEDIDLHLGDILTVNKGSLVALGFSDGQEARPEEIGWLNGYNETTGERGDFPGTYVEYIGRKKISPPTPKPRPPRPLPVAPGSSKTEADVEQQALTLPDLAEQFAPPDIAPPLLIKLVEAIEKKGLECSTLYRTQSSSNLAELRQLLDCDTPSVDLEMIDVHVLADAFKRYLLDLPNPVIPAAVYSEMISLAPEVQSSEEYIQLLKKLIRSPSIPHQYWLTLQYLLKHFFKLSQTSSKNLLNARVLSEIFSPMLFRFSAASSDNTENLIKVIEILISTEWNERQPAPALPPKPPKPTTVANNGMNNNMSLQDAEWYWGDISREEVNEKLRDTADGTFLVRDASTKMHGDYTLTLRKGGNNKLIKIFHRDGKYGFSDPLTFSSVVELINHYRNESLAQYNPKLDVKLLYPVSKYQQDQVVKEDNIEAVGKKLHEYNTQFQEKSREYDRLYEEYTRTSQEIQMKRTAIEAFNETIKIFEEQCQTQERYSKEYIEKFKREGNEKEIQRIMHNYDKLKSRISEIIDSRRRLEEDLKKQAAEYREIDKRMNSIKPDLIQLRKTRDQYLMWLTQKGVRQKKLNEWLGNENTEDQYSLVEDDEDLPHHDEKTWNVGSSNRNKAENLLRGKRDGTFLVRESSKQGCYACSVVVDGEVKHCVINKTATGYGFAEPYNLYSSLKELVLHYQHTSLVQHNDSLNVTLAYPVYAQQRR

Turning to `CCNC(=O)Nc1ccc(-c2nc(N3CCOCC3)c3cnn(C4CCN(Cc5ccccc5)CC4)c3n2)cc1F` [Example 349, 1-{4-[1-(1-benzylpiperidin-4-yl)-4-morpholin-4-yl-1H-pyrazolo[3,4-d]pyrimidin-6-yl]-2-fluorophenyl}-3-ethylurea], the IC50 (commonly the concentration that gives 50% inhibition) at PI3K (PI3Kα, read-out: PI3Kα IC50) was 0.485 µM; in the experiment on prostate line LNCap (Homo sapiens, LNCaP, 72 h) it was 0.23 µM; in the experiment on breast line MDA468 (Homo sapiens, 72 h) it was 2.5 µM.

As to `c1ccc(-n2ncc3c(N4CCOCC4)nc(-c4ccc5[nH]ncc5c4)nc32)cc1` [Example 432, 6-(1H-indazol-5-yl)-4-morpholin-4-yl-1-phenyl-1H-pyrazolo[3,4-d]pyrimidine], the IC50 was determined as 0.44 µM on PI3K (PI3Kα, read-out: PI3Kα IC50); 20 µM in the experiment with prostate line LNCap (Homo sapiens, LNCaP, 72 h); 60 µM in the experiment with breast line MDA468 (Homo sapiens, 72 h).

With `O=C(c1ccc(Cl)nc1)N1CCC(n2ncc3c(N4CCOCC4)nc(-c4ccc5[nH]ccc5c4)nc32)CC1` [Example 196, 1-{1-[(6-chloropyridin-3-yl)carbonyl]piperidin-4-yl}-6-(1H-indol-5-yl)-4-morpholin-4-yl-1H-pyrazolo[3,4-d]pyrimidine], the IC50 at PI3K (PI3Kα, read-out: PI3Kα IC50) was 1.28 µM; in the experiment with prostate line LNCap (Homo sapiens, LNCaP, 72 h), 0.75 µM; in the experiment with breast line MDA468 (Homo sapiens, 72 h), 3 µM.

For `CNC(=NC#N)Nc1ccc(-c2nc(N3CCOCC3)c3cnn(C4CCN(Cc5cccnc5)CC4)c3n2)cc1` [Example 407, 2-cyano-1-methyl-3-(4-{4-morpholin-4-yl-1-[1-(pyridin-3-ylmethyl)piperidin-4-yl]-1H-pyrazolo[3,4-d]pyrimidin-6-yl}phenyl)guanidine], the 50% inhibitory concentration (IC50) on PI3K (PI3Kα, read-out: PI3Kα IC50) amounted to 0.774 µM; in the experiment with prostate line LNCap (Homo sapiens, LNCaP, 72 h), 1.7 µM; in the experiment on breast line MDA468 (Homo sapiens, 72 h) it was 3.8 µM.

Regarding `CNS(=O)(=O)c1ccc(-c2nc(N3CCOCC3)c3cnn(C4CCN(Cc5ccccc5)CC4)c3n2)cc1` [Compound 86], the half-maximal inhibitory concentration (IC50) on PI3K (PI3Kα, read-out: PI3Kα IC50) turned out to be 4.66 µM; with prostate line LNCap (Homo sapiens, LNCaP, 72 h), 7.2 µM; with breast line MDA468 (Homo sapiens, 72 h), 6.5 µM.

For “methyl [4-(1-{1-[(6-fluoropyridin-3-yl)methyl]piperidin-4-yl}-4-morpholin-4-yl-1H-pyrazolo[3,4-d]pyrimidin-6-yl) phenyl]carbamate [Compound 453]”, the half-inhibitory concentration (IC50) at PI3K (PI3Kα, read-out: PI3Kα IC50) was determined as 1.2 µM; in the experiment on prostate line LNCap it was 0.9 µM; with breast line MDA468, 6 µM.

As to `CNC(=O)Nc1ccc(-c2nc(N3CCOCC3)c3cnn(C4CCN(C(=O)c5cccc(C)c5)CC4)c3n2)cc1` [Compound 612, 1-methyl-3-(4-{1-[1-(3-methylbenzoyl)piperidin-4-yl]-4-morpholin-4-yl-1H-pyrazolo[3,4-d]pyrimidin-6-yl}phenyl)urea], the IC50 on PI3K (PI3Kα, read-out: PI3Kα IC50) was 0.072 µM; in the experiment with prostate line LNCap (Homo sapiens, LNCaP, 72 h) it was under 0.027 µM; in the experiment with breast line MDA468 (Homo sapiens, 72 h), 0.027 µM.

`CCNC(=O)Nc1ccc(-c2nc(N3CCOCC3)c3cnn(C4CCN(Cc5ccccc5)CC4)c3n2)cc1F` [Compound 596, 1-{4-[1-(1-benzylpiperidin-4-yl)-4-morpholin-4-yl-1H-pyrazolo[3,4-d]pyrimidin-6-yl]-2-fluorophenyl}-3-ethylurea]: the IC50 at PI3K (PI3Kα, read-out: PI3Kα IC50) amounted to 0.485 µM; in the experiment with prostate line LNCap (Homo sapiens, LNCaP, 72 h), 0.23 µM; in the experiment with breast line MDA468 (Homo sapiens, 72 h), 2.5 µM.

With `CNC(=O)Nc1ccc(-c2nc(N3CCOCC3)c3cnn(C4CCN(C(=O)c5cccc(F)c5)CC4)c3n2)cc1` [Example 357, 1-(4-{1-[1-(3-fluorobenzoyl)piperidin-4-yl]-4-morpholin-4-yl-1H-pyrazolo[3,4-d]pyrimidin-6-yl}phenyl)-3-methylurea], the IC50 on PI3K (PI3Kα, read-out: PI3Kα IC50) came out at 0.089 µM; in the experiment on prostate line LNCap (Homo sapiens, LNCaP, 72 h), 0.027 µM; in the experiment on breast line MDA468 (Homo sapiens, 72 h), 0.1 µM.

Take `CC(=O)Nc1ccc(-c2nc(N3CCOCC3)c3cnn(C4CCN(C(=O)c5cccnc5)CC4)c3n2)cc1` [Example 159, N-(4-{4-morpholin-4-yl-1-[1-(pyridin-3-ylcarbonyl)piperidin-4-yl]-1H-pyrazolo[3,4-d]pyrimidin-6-yl}phenyl)acetamide]: the IC50 on PI3K (PI3Kα, read-out: PI3Kα IC50) was 0.878 µM; in the experiment with prostate line LNCap (Homo sapiens, LNCaP, 72 h), 0.63 µM; in the experiment with breast line MDA468 (Homo sapiens, 72 h) it was 2.5 µM.

In the case of `CNC(=O)Nc1ccc(-c2nc(N3CCOCC3)c3cnn(C4CCN(C(=O)c5ccc(F)cc5)CC4)c3n2)cc1` [Compound 607, 1-(4-{1-[1-(4-fluorobenzoyl)piperidin-4-yl]-4-morpholin-4-yl-1H-pyrazolo[3,4-d]pyrimidin-6-yl}phenyl)-3-methylurea], the half-inhibitory concentration (IC50) at PI3K (PI3Kα, read-out: PI3Kα IC50) worked out at 0.108 µM; in the experiment with prostate line LNCap (Homo sapiens, LNCaP, 72 h), 0.027 µM; in the experiment with breast line MDA468 (Homo sapiens, 72 h), 0.09 µM.

For `C=CC(=O)Nc1ccc(-c2nc(N3CCOCC3)c3cn[nH]c3n2)cc1` [Compound 526, N-[4-(4-morpholin-4-yl-1H-pyrazolo[3,4-d]pyrimidin-6-yl)phenyl]acrylamide], the 50% inhibitory concentration (IC50) at PI3K (PI3Kα, read-out: PI3Kα IC50) worked out at 0.601 µM; with prostate line LNCap (Homo sapiens, LNCaP, 72 h) it was 3.4 µM; with breast line MDA468 (Homo sapiens, 72 h), 7 µM.

As for `CNC(=O)Nc1ccc(-c2nc(N3CCOCC3)c3cnn(C4CCN(CC(=O)OC)CC4)c3n2)cc1` [Compound 794, methyl [4-(6-{4-[(methylcarbamoyl)amino]phenyl}-4-morpholin-4-yl-1H-pyrazolo[3,4-d]pyrimidin-1-yl)piperidin-1-yl]acetate], the half-inhibitory concentration (IC50) on PI3K (PI3Kα, read-out: PI3Kα IC50) amounted to 0.126 µM; in the experiment with prostate line LNCap (Homo sapiens, LNCaP, 72 h), 0.14 µM; in the experiment on breast line MDA468 (Homo sapiens, 72 h), 0.5 µM.

With `Cc1ncccc1C(=O)N1CCC(n2ncc3c(N4CCOCC4)nc(-c4ccc5[nH]ccc5c4)nc32)CC1` [Example 200, 6-(1H-indol-5-yl)-1-{1-[(2-methylpyridin-3-yl)carbonyl]piperidin-4-yl}-4-morpholin-4-yl-1H-pyrazolo[3,4-d]pyrimidine], the 50% inhibitory concentration (IC50) stood at 2.39 µM at PI3K (PI3Kα, read-out: PI3Kα IC50); 0.75 µM in the experiment on prostate line LNCap (Homo sapiens, LNCaP, 72 h); 2 µM in the experiment with breast line MDA468 (Homo sapiens, 72 h).

`CNC(=O)Nc1ccc(-c2nc(N3CCOCC3)c3cnn(C4CCN(Cc5ccccn5)CC4)c3n2)cc1` [Example 331, 1-methyl-3-(4-{4-morpholin-4-yl-1-[1-(pyridin-2-ylmethyl)piperidin-4-yl]-1H-pyrazolo[3,4-d]pyrimidin-6-yl}phenyl)urea]: the IC50 worked out at 0.065 µM at PI3K (PI3Kα, read-out: PI3Kα IC50); 0.027 µM in the experiment on prostate line LNCap (Homo sapiens, LNCaP, 72 h); 0.5 µM with breast line MDA468 (Homo sapiens, 72 h).

Take `O=C(O)CCC(=O)Nc1ccc(-c2nc(N3CCOCC3)c3cnn(C4CCN(Cc5ccccc5)CC4)c3n2)cc1` [Compound 81]: the half-inhibitory concentration (IC50) on PI3K (PI3Kα, read-out: PI3Kα IC50) stood at 3.68 µM; in the experiment with prostate line LNCap (Homo sapiens, LNCaP, 72 h), 60 µM; in the experiment on breast line MDA468 (Homo sapiens, 72 h), 45 µM.

`CNC(=O)Nc1ccc(-c2nc(N3CCOCC3)c3cnn(C4CCN(CC#N)CC4)c3n2)cc1` [Compound 793, 1-(4-{1-[1-(cyanomethyl)piperidin-4-yl]-4-morpholin-4-yl-1H-pyrazolo[3,4-d]pyrimidin-6-yl}phenyl)-3-methylurea]: the IC50 was 0.076 µM on PI3K (PI3Kα, read-out: PI3Kα IC50); 1.01 µM with prostate line LNCap (Homo sapiens, LNCaP, 72 h); 1.2 µM in the experiment on breast line MDA468 (Homo sapiens, 72 h).

Consider `C=CC(=O)N1CCC(n2ncc3c(N4CCOCC4)nc(-c4ccc(NC(=O)OC)cc4)nc32)CC1` [Compound 458, methyl {4-[1-(1-acryloylpiperidin-4-yl)-4-morpholin-4-yl-1H-pyrazolo[3,4-d]pyrimidin-6-yl]phenyl}carbamate], for which the IC50 at PI3K (PI3Kα, read-out: PI3Kα IC50) was found to be 1.98 µM; in the experiment on prostate line LNCap (Homo sapiens, LNCaP, 72 h), 0.93 µM; with breast line MDA468 (Homo sapiens, 72 h) it was 1.2 µM.

In the case of `O=C(Oc1ccccc1)N1CCC(n2ncc3c(N4CCOCC4)nc(-c4ccc5[nH]ccc5c4)nc32)CC1` [Compound 243, phenyl 4-[6-(1H-indol-5-yl)-4-morpholin-4-yl-1H-pyrazolo[3,4-d]pyrimidin-1-yl]piperidine-1-carboxylate], the half-maximal inhibitory concentration (IC50) against PI3K (PI3Kα IC50, PI3Kα) is 0.535 µM; with prostate line LNCap (Homo sapiens, 72 h), 1.3 µM; with breast line MDA468 (Homo sapiens, 72 h) it was 4.3 µM.
